Each molecule was assayed against T1, Vasopressin 2 (V2) receptor (Rattus norvegicus, UniProt Q00788) (assay: Vasopressin 2 (V2) receptor binding). Details: male rat kidney medullopapillary membrane; 0.5 nM ^3H-vasopressin; 2 hours at 25° C.; pH 7.4.
T1 construct: The medullopapillary region of male rat kidey was dissected; from tissue; host or cells: male rat kidney medullopapillary membranes
Method: Vasopressin 2 (V2) receptor binding
(§1) The medullopapillary region of male rat kidey was dissected and homogenized in 10 volume of ice cold 250 mM sucrose buffer containing 25 mM Tris-HCl (pH 7.4), 5 mM MgCl2 and 0.1 mM phenylmethylsulfonyl fluoride (PMSF). The homogenate was centrifuged at 500 xg for 5 minutes. The supernatant fraction was separated and centrifuged at 45,000 xg for 30 minutes. The remaining pellet was resuspended in 10 volume of ice cold 100 mM Tris-HCl (pH 7.4) buffer (containing 5 mM MgCl2, 0.1% bovine serum albumin and 0.1 mM PMSF), and centrifuged at 45,000 xg for 30 minutes again. The final pellet was resuspended in 100 mM Tris-HCl buffer. The resulting membrane preparation was used immediately for the binding assay.
Competition assays were conducted at equilibrium (2 hours at. 25° C.) by using 0.5 nM ^3 H-vasopression ([phenylalanyl-3,4,5-3H]-vasopression; 40-87 Ci/mmol; New England Nuclear) in 100 mM Tris-HCl (pH 7.4) buffer. Nonspecific binding was determined by using 1 μM [d(CH2)5, D-Ile^2 Ile^4 Arg8]-vasopressin (Peninsula Laboratories USA). After incubation, reaction was terminated by adding 5 ml of ice-cold 100 mM Tris-HCl (pH 7.4) buffer, and then filtered rapidly through Whatman glass filter (GF/C). The filter was washed 2 times with the same buffer (5 ml). The glass filter was mixed with liquid scintilation cocktail, and radioactivity was counted in a liquid scintilation counter (TRI-CARB 4530, Packard). Competition activity of the test compound was represented by IC50 values.

T1 sequence (Q00788 whole entry): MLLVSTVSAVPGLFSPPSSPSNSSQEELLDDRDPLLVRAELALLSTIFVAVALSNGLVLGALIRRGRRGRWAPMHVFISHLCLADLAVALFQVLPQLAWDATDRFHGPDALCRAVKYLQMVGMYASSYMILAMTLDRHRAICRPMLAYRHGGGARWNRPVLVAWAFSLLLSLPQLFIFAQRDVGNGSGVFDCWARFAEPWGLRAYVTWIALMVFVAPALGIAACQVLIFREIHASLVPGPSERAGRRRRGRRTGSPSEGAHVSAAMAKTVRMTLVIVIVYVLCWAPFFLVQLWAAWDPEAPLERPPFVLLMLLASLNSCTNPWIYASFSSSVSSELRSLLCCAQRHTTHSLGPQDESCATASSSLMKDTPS

| SMILES | IC50 [nM] |
| --- | --- |
| Cc1ccc(-c2ccccc2C(=O)Nc2ccc(C(=O)N3CCCC(CC(=O)N4CCN(C)CC4)c4ccccc43)cc2)cc1 (centres unmarked) [16-69), 1-{4-[2-(4-Methylphenyl)benzoylamino]benzoyl}-5-(4-methyl-1-piperazinylcarbonyl)methyl-2,3,4,5-tetrahydro-1H-1-benzazepine] | 5.1 |
| Cc1ccc(-c2ccccc2C(=O)Nc2ccc(C(=O)N3CCC(=O)N(CC(=O)N4CCN(C)CC4)c4cc(Cl)ccc43)cc2)cc1 [16-9), 8-Chloro-5-{4-[2-(4-methylphenyl)benzoylamino]benzoyl}-1-[(4-methyl-1-piperazinyl)carbonylmethyl]-1,3,4,5-tetrahydro-1,5-benzodiazepin-2(2H)-one] | 3.3 |

Second part, the molecule after the results:

| IC50 [nM] | SMILES |
| --- | --- |
| 3 | Cc1ccc(-c2ccccc2C(=O)Nc2ccc(C(=O)N3CC(=O)Nc4ccccc43)cc2)cc1 [2-4), 1-{4-[2-(4-Methylphenyl)benzoylamino]benzoyl}-1,2,3,4-tetrahydroquinoxalin-3-one] |
| 2.7 | Cc1ccc(-c2ccccc2C(=O)Nc2ccc(C(=O)N3CCC(=O)N(CC(=O)N4CCN(C)CC4)c4cc(C)ccc43)cc2)cc1 [16-14), 8-Methyl-5-{4-[2-(4-methylphenyl)benzoylamino]benzoyl}-1-[(4-methyl-1-piperazinyl)carbonylmethyl]1,3,4,5-tetrahydro-1,5-benzodiazepin-2(2H)-one] |
| 2.3 | Cc1ccc(-c2ccccc2C(=O)Nc2ccc(C(=O)N3CCC(=O)N(CC(=O)N4CCN(C)CC4)c4ccccc43)cc2)c(C)c1 [16-3), 5-{4-[2-(2,4-Dimethylphenyl)benzoylamino]benzoyl}-1-[(4-methyl-1-piperazinyl)carbonylmethyl]-1,3,4,5-tetrahydro-1,5-benzodiazepin-2 (2H)-one] |
| 1.8 | Cc1ccc(-c2ccccc2C(=O)Nc2ccc(C(=O)N3CCC(=O)N(CC(=O)N4CCN(C)CC4)c4ccccc43)cc2)cc1 [Example 15, 5-{4-[2-(4-methylphenyl)benzoylamino]benzoyl}-1-[(4-methyl-1-piperazinyl)carbonylmethyl]-1,3,4,5-tetrahydro-1,5-benzodiazepin-2(2H)-one] |

Each molecule was assayed against T2, Vasopressin 1 (Vl) receptor (Rattus norvegicus, UniProt P30560) (assay: Vasopressin 1 (Vl) receptor binding). Details: rat liver membrane; 0.5 nM ^3H-vasopressin; 60 minutes at 25° C.; pH 7.4.
T2 construct: The rat liver was dissected and homogenized; from tissue; host or cells: rat liver membranes
T2 sequence (P30560 whole entry): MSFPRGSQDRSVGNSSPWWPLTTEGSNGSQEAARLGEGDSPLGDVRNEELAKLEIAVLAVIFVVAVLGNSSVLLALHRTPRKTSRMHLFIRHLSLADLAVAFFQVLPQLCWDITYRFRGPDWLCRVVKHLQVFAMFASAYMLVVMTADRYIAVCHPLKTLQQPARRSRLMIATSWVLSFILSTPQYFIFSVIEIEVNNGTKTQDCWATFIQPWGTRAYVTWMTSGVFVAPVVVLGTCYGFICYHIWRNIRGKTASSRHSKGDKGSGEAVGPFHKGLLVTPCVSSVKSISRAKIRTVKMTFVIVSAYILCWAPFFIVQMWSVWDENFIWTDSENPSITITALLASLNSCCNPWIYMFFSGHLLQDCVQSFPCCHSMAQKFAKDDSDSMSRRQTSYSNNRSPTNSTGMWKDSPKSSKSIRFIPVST
Method: Vasopressin 1 (Vl) receptor binding
as §1, with “The” for “The medullopapillary region of male”, “rat liver” for “rat kidey”, “at 1000” for “at 500”, “for 10” for “for 5”
Competition assays were conducted at equilibrium (60 minutes at 25° C.) by using 0.5 nM ^3 H-vasopressin ([phenylalanyl-3,4,5-^3 H]-vasopression; 40-87 Ci/mmol; New England Nuclear) in 100 mM Tris-HCl (pH 7.4) buffer. Nonspecific binding was determined by using 1 μM [d(CH2)5, Tyr^2 (Me), Arg^8 ]-vasopressin (Peptide institute, Japan). After incubation, reaction was terminated by adding 5 ml of ice-cold 100 mM Tris-HCl (pH 7.4) buffer, and then filtered rapidly through Whatman glass filter (GF/C). […] The glass filter was mixed with liquid scintilation cocktail, and radioactivity was counted in a liquid scintilation counter (TRI-CARB 4530, Packard). […]

| IC50 [nM] | SMILES |
| --- | --- |
| 3.9 | Cc1ccc(-c2ccccc2C(=O)Nc2ccc(C(=O)N3CCCCc4ccccc43)cc2)cc1 [2-2), 1-{4-[2-(4-Methylphenyl)benzoylamino]benzoyl}-2,3,4,5-tetrahydro-1H-benzazepine] |
| 4.4 | Cc1ccccc1-c1ccccc1C(=O)Nc1ccc(C(=O)N2CCCC(N(C)C)c3ccccc32)cc1 (centres unmarked) [2-21), 5-Dimethylamino-1-{4-[2-(2-methylphenyl)benzoylamino]benzoyl}-2,3,4,5-tetrahydro-1H-benzazepine] |
